Legend:
Sprague-Dawley rat [1] = settings: in vivo, ip
Sprague-Dawley rat [2] = settings: in vivo, ip; remark: listed apart in the source
Hemoglobin (Hgb) = Hemoglobin (Hgb) (Homo sapiens, UniProt P68871+P69905); settings: cited from earlier work
Sprague-Dawley rat [3] = settings: in vivo

Hemoglobin (Hgb), sequence (P68871 2-147): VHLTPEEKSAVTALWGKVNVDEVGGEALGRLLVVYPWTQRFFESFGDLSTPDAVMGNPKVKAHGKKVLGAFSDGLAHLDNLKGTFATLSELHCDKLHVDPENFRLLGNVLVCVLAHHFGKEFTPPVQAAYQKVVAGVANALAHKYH
Hemoglobin (Hgb), sequence (P69905 2-142): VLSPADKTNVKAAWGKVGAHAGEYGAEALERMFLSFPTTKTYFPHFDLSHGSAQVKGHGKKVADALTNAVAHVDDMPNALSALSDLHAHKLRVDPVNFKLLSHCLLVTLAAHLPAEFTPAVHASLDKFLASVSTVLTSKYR

Molecule | time to animal expiration post-injection (Sprague-Dawley rat [1]) | lowest dose with statistically significant decreases in the pupillary light reflex (p<0.05) (Sprague-Dawley rat [2]) [µg/kg] | affinity of Hgb for CO relative to that for oxygen (Hemoglobin (Hgb)) | concentration causing significant changes in both arterial and venous coloration (Sprague-Dawley rat [3]) [ppm] | extrapolated EC50 for fundal artery coloration changes (Sprague-Dawley rat [3]) [ppm] | lowest level with statistically significant arterial coloration changes (p<0.05) (Sprague-Dawley rat [3]) [ppm] | maximal observed change in arterial coloration in all animals (Sprague-Dawley rat [3]) [%] | near maximal change in arterial coloration in animals which did not expire (Sprague-Dawley rat [3]) [%]
botulinum toxin | at least 14 hours | 1e-05 |  |  |  |  |  | 
[C-]#[O+] [CO, Carbon monoxide] |  |  | 200-250 times greater | ≥ 500 | 289±37 | 250 | 38.5 | 92.3

— patent publication US8092020B2 (priority 2002, dated 2012)
